Measurements published in patent US10842797B2, “Nutraceutical co-crystal compositions” (UNIVERSITY OF SOUTH FLORIDA, priority 2007, dated 2020).

Protocol: Solubility profiles for co-crystals were determined by UV-vis spectroscopy (Perkin Elmer-Lambda 25 UV-vis spectrometer, 400 nm).
The solubility of KP10 in 1:1 ethanol/water (V/V %) was determined by UV-vis spectroscopy, with a wavelength of 360 nm.
The solubility of KP15 in 1:1 ethanol/water (V/V %) was determined by UV-vis spectroscopy, with a wavelength of 300 nm.

| Substance | increase in the solubility of hesperetin in the co-crystal when compared to pure hesperetin | increase in the solubility of quercetin in the co-crystal when compared to quercetin dehydrate [fold] |
| --- | --- | --- |
| Co-Crystal of Hesperetin and Iso-Nicotinamide [KP15] | approximately 12 fold |  |
| Co-Crystal of Quercetin and Iso-Nicotinamide [KP10] |  | ~6 |
